Seven compounds from US20240131167A1, “EGFR Degraders and Associated Methods of Use” (BeiGene Switzerland GmbH, priority 2021, published 2024) can be followed below.

In assay [1] the test system is EGFR (Del19/T790M/C797S) in H1975-clone #28 cells. Briefly: Cell degradation of EGFR, HTRF assay, H1975-clone #28 cells. The format is cell-based. The settings on record: H1975-clone #28 (Del19/T790M/C797S, homozygous), 16 h treatment; for DC50: HTRF; for Dmax H1975 #28: maximum percentage of inhibition (degradation). How it is done: (§1) BaF3-LTC (L858R/T790M/C797S) cells are treated with compounds diluted in 0.2% DMSO cell culture medium and incubate for 16 h, 37° C., 5% CO2. H1975-#28 cells are treated with compounds diluted in 0.2% DMSO cell culture medium on day 2, incubate for 16 h, 37° C., 5% CO2, the final concentration of compounds in all assay is start with 10 uM, 4-fold dilution, total 8 doses were included.
(§2) After 16 h treatment, add HTRF lysis buffer to each well; seal the plate and incubate 1 hour at room temperature on a plate shaker. Once the cells are lysed, 16 μL of cell lysate are transferred to a PE 384-well HTRF detection plate: 4 μL of pre-mixed HTRF antibodies are added to each well; Cover the plate with a plate sealer, spin 1000 rpm for 1 min, Incubate overnight at room temperature; Read on BMG PheraStar with HTRF protocol (337 nm-665 nm-620 nm).
(§3) The inhibition (degradation) percentage of the compound was calculated by the following equation: […]
(§4) The IC50 (DC50) value of a compound can be obtained by fitting the following equation
(§5) Y=Bottom+(TOP−Bottom)/(1+((IC50/X)^hillslope))
(§6) Wherein, X and Y are known values, and IC50. Hillslope, Top and Bottom are the parameters obtained by fitting with software. Y is the inhibition percentage (calculated from the equation), X is the concentration of the compound; IC50 is the concentration of the compound when the 50% inhibition is reached. The smaller the IC50 value is, the stronger the inhibitory ability of the compound is. Vice versa, the higher the IC50 value is, the weaker the ability the inhibitory ability of the compound is; Hillslope represents the slope of the fitted curve, generally around 1*; Bottom represents the minimum value of the curve obtained by data fitting, which is generally 0%±20%. Top represents the maximum value of the curve obtained by data fitting, which is generally 100%±20%. The experimental data were fitted by calculating and analyzing with Dotmatics data analysis software.
(In general: In TR-FRET formats the signal depends on donor and acceptor labels being close together.)

In assay [2] the target is T1, EGFR (L858R/T790M/C797S) in BaF3-LTC cells (Homo sapiens, UniProt P00533, C797S/L858R/T790M).
T1 construct: expressed in transfected cells; host or cells: BaF3-LTC
Briefly: Cell degradation of EGFR, HTRF assay, BaF3-LTC cells. It counts as cell-based. Particulars: 16 h treatment; for DC50: HTRF; for Dmax: maximum percentage of inhibition (degradation). How it is done: as §1, §2, §3, §4, §5, §6

T1 sequence (P00533 25-1210 T790M/C797S/L858R): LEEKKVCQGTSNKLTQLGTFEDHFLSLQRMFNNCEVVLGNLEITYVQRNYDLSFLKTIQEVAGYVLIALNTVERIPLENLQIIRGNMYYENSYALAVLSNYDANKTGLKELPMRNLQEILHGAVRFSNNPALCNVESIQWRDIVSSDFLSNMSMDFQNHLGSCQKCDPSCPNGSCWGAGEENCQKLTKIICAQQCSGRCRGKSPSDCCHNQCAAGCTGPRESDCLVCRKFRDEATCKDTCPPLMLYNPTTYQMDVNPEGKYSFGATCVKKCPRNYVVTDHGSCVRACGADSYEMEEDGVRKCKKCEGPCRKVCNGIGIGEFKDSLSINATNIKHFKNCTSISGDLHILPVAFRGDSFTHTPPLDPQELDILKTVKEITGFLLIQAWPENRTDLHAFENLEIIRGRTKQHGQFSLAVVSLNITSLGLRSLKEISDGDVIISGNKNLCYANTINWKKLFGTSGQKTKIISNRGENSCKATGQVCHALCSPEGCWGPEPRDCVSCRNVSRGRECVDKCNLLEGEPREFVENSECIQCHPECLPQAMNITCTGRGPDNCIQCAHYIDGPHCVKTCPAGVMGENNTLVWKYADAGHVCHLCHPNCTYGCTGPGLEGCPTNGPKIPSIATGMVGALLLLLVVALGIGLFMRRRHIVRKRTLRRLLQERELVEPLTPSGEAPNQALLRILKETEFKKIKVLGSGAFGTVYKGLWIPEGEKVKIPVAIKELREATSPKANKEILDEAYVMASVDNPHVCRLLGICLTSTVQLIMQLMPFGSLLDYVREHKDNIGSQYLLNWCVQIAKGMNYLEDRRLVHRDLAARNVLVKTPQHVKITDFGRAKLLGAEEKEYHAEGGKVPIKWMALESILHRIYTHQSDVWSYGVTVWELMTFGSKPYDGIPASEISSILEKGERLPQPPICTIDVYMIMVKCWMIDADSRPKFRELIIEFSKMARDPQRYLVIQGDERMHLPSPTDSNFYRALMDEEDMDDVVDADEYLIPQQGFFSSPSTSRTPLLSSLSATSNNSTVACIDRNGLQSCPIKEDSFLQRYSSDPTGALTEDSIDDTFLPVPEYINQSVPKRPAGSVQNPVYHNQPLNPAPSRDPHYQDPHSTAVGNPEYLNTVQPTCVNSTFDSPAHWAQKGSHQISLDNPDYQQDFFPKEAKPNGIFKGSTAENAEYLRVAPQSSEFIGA

The DC50 is the concentration giving 50% degradation. Read a high DC50 as a less potent degrader. By Dmax is commonly meant the largest share of the target that was removed. Higher therefore signals deep degradation. In the case of `CCc1cc(Nc2ncc(Br)c(Nc3ccc4nc(C)ccc4c3P3(=O)CCCC3)n2)c(OC)cc1N1CCC(N2CCN(CCc3cccc4c3C(C)(C)C(=O)N4C3CCC(=O)NC3=O)CC2)CC1` (stereo not shown) [Example 73, 3-(4-(2-(4-(1-(4-((5-bromo-4-((2-methyl-5-(1-oxidophospholan-1-yl)quinolin-6-yl)amino)pyrimidin-2-yl)amino)-2-ethyl-5-methoxyphenyl)piperidin-4-yl)piperazin-1-yl)ethyl)-3,3-dimethyl-2-oxoindolin-1-yl)piperidine-2,6-dione], in assay [1], the DC50 stood at 0.66 nM and the “Dmax H1975 #28” value is reported as 78.13%. Further, in assay [2], half-maximal degradation (DC50) was put at 7.52 nM and the Dmax stood at 89.9%.

In the case of `CCc1cc(Nc2ncc(Br)c(Nc3ccccc3P3(=O)CCCC3)n2)c(OC)cc1N1CCC(N2CCN(CCc3cc(F)c(C4CCC(=O)NC4=O)c(F)c3)CC2)CC1` (stereo not shown) [Example 147, 3-(4-(2-(4-(1-(4-((5-bromo-4-((2-(1-oxidophospholan-1-yl)phenyl)amino)pyrimidin-2-yl)amino)-2-ethyl-5-methoxyphenyl)piperidin-4-yl)piperazin-1-yl)ethyl)-2,6-difluorophenyl)piperidine-2,6-dione], in assay [1], the DC50 was found to be 3.15 nM and the “Dmax H1975 #28” value was 82.21%. In assay [2], it took 75.1 nM to reach half-maximal degradation (DC50) and the Dmax was determined as 86.6%.

For `CCc1cc(Nc2ncc(Br)c(Nc3ccccc3P3(=O)CCCC3)n2)c(OC)cc1N1CCC(N2CCN(C(=O)[C@@H]3CCN(c4cc(F)c(C5CCC(=O)NC5=O)c(F)c4)C3)CC2)CC1` (stereo partly drawn) [Example 111, 3-(4-((R)-3-(4-(1-(4-((5-bromo-4-((2-(1-oxidophospholan-1-yl)phenyl)amino)pyrimidin-2-yl)amino)-2-ethyl-5-methoxyphenyl)piperidin-4-yl)piperazine-1-carbonyl)pyrrolidin-1-yl)-2,6-difluorophenyl)piperidine-2,6-dione], in assay [1], the DC50 was 4.31 nM and the “Dmax H1975 #28” value turned out to be 87.16%. In assay [2], it took 26.8 nM to reach half-maximal degradation (DC50) and the Dmax was determined as 90.3%.

In the case of `CCc1cc(Nc2ncc(Br)c(Nc3ccc4nc(C)ccc4c3P3(=O)CCCC3)n2)c(OC)cc1N1CCC(N2CCN(CCc3ccc4c(c3)oc(=O)n4C3CCC(=O)NC3=O)CC2)CC1` (stereo not shown) [Example 71, 3-(6-(2-(4-(1-(4-((5-bromo-4-((2-methyl-5-(1-oxidophospholan-1-yl)quinolin-6-yl)amino)pyrimidin-2-yl)amino)-2-ethyl-5-methoxyphenyl)piperidin-4-yl)piperazin-1-yl)ethyl)-2-oxobenzo[d]oxazol-3(2H)-yl)piperidine-2,6-dione], in assay [1], the DC50 amounted to 1.38 nM and the “Dmax H1975 #28” value was 72.97%. Also, in assay [2], the DC50 turned out to be 2.51 nM and the Dmax amounted to 88.6%.

On to `CCc1cc(Nc2ncc(Br)c(Nc3ccccc3P3(=O)CCCC3)n2)c(OC)cc1N1CCC(N2CCN(C(=O)C3CN(c4cc(F)c(C5CCC(=O)NC5=O)c(F)c4)C3)CC2)CC1` (stereo not shown) [Example 148, 3-(4-(3-(4-(1-(4-((5-bromo-4-((2-(1-oxidophospholan-1-yl)phenyl)amino)pyrimidin-2-yl)amino)-2-ethyl-5-methoxyphenyl)piperidin-4-yl)piperazine-1-carbonyl)azetidin-1-yl)-2,6-difluorophenyl)piperidine-2,6-dione], for which, in assay [1], it took 2.99 nM to reach half-maximal degradation (DC50) and the “Dmax H1975 #28” value worked out at 78.19%. In assay [2], this compound had a DC50 of 19.8 nM and a Dmax of 90.2%.

For `CCc1cc(Nc2ncc(Br)c(Nc3ccc4nc(C)ccc4c3P3(=O)CC=CC3)n2)c(OC)cc1N1CCC(N2CCN(CCc3ccc4c(c3)oc(=O)n4C3CCC(=O)NC3=O)CC2)CC1` (stereo not shown) [Example 145, 3-(6-(2-(4-(1-(4-((5-bromo-4-((2-methyl-5-(1-oxido-2,5-dihydrophosphol-1-yl)quinolin-6-yl)amino)pyrimidin-2-yl)amino)-2-ethyl-5-methoxyphenyl)piperidin-4-yl)piperazin-1-yl)ethyl)-2-oxobenzo[d]oxazol-3(2H)-yl)piperidine-2,6-dione], in assay [1], half-maximal degradation (DC50) was put at 0.77 nM and the “Dmax H1975 #28” value is given as 75.97%. In assay [2], this compound returned a DC50 of 1.82 nM and a Dmax of 91.8%.

In the case of `CCc1cc(Nc2ncc(Br)c(Nc3ccc4nc(C)ccc4c3P3(=O)CCCC3)n2)c(OC)cc1N1CCC(N2CCN(CCc3cccc4c3n(C)c(=O)n4C3CCC(=O)NC3=O)CC2)CC1` (stereo not shown) [Example 68, 3-(4-(2-(4-(1-(4-((5-bromo-4-((2-methyl-5-(1-oxidophospholan-1-yl)quinolin-6-yl)amino)pyrimidin-2-yl)amino)-2-ethyl-5-methoxyphenyl)piperidin-4-yl)piperazin-1-yl)ethyl)-3-methyl-2-oxo-2,3-dihydro-1H-benzo[d]imidazol-1-yl)piperidine-2,6-dione], in assay [1], it took 1.34 nM to reach half-maximal degradation (DC50) and the “Dmax H1975 #28” value came out at 85.88%. Further, in assay [2], it took 3.46 nM to reach half-maximal degradation (DC50) and the Dmax was 90.8%.
